Test results: patent EP0934745B1, “Use of androsterone derivatives for inhibiting DNA binding of ap-1 and airway smooth muscle proliferation” (CHARLOTTE-MECKLENBURG HOSPITAL doing business as Carolinas …, priority 1998, dated 1999)

Tested on: rat tracheal smooth muscle
Test: Proliferation of cultured airway smooth muscle (MTT reduction, cell counts)
Format: cell-based
Details: for growth inhibition by direct visual count of stained cells: 10% FBS, 15,000 cells/well cultured for 24 hours (Figure 4A); for inhibition of FBS-induced cell proliferation (comparison in words): 10% FBS, 15,000 cells/well, 92-96 hours, MTT (Figures 3A, 3C)
Procedure: Polyclonal horseradish peroxidase anti-rabbit IgG was from Transduction Laboratories (Lexington, KY). M-MLV reverse transcriptase was from Life Technologies (Gaithersburg, MD). All other materials were obtained from Sigma unless specified. Measurement of Cultured Airway Smooth Muscle Proliferation. Rat tracheal smooth muscle was cultured by euthanizing rats with pentobarbital overdose and removal of their tracheas. The posterior tracheal membrane was isolated, minced and digested twice for 30 minutes at 37°C. in HBSS containing 0.2% type IV collagenase and 0.05% type IV elastase. Each enzyme digest was collected and centrifuged for 5 minutes at 500 g at room temperature. The supernatant was removed and the pellet was resuspended in DMEM supplemented with 10% FBS, nonessential amino acids, penicillin (100 U/ml), streptomycin (100 µg/ml) and amphotericin (250 ng/ml). Cells were seeded in this medium into 25-cm^2 flasks at 2 x 10^5 cells per flask and incubated in a humidified atmosphere of 5% CO2/95% air at 37°C. Upon reaching confluence, cells were detached with 0.25% trypsin-0.002% EDTA solution for passage.
Proliferation of cultured airway smooth muscle was quantitated using modification of a previously reported colorimetric method based upon metabolic reduction of the soluble yellow tetrazolium dye 3-[4,5-dimethylthiazol]-2yl-2,5-diphenyl tetrazolium bromide (MTT) to its insoluble purple formazan by the action of mitochondrial succinyl dehydrogenase. See Hirst, S.J., Barnes, P.J., and Twort, C.H.C., "Quantifying proliferation of cultured human and rabbit airway smooth muscle in response to serum and platelet derived growth factor," Am. J. Respir. Cell Mol. Biol., 7, 574-581 (1992). This assay empirically distinguishes between dead and living cells. For proliferation studies, cells were seeded into 24-well uncoated plastic plates at 15,000-50,000 cells per well and cultured with DMEM and mitogens. After 24-96 hours the medium was replaced with 1 ml/well fresh DMEM containing 100 µg/ml MTT and 0.5% FBS, and plates were incubated an additional hour MTT-containing medium was removed, cells were washed twice with 1 ml of sterile Dulbecco's modified phosphate buffered saline without Ca^2+ or Mg^2+ (DPBS), 0.5 ml dimethylsulfoxide (DMSO) was added to each well, and the absorbance of the solubilized purple formazan dye was measured at 540 nm on a Shimadzu UV160U spectrophotometer. A total of 4-6 wells was studied at each treatment condition.
The optimum concentration of FBS for use as a mitogenic stimulus was determined by incubating 15,000 cells per well with DMEM containing 0.25, 1.0, 5.0 or 10.0% FBS and MTT reduction was determined after 24, 48, 72 or 96 hours. […] After 24 hours, cells were washed twice with DPBS, fixed and permeabilized by two sequential 5 minute exposures to ice-cold methanol, stained with Giemsa-modified Wright's stain for 3 minutes and washed with DPBS. Cell counts were performed on 10 random fields at 40 power using a 0.01-cm^2 ocular grid. Cell Culture Treatments for Measurement of Airway Smooth Muscle Proliferation. The effect of dehydroepiandrosterone (DHEA) and 16α-bromoepiandrosterone (16α-BrEA) on cellular proliferation was studied in cultures stimulated with 0.5-10% FBS or 1-50 ng/ml recombinant human platelet derived growth factor (PDGF-AA). […] See, for example, the method of Le, Y. Y. , and Xu, R.B., "The molecular mechanism of the action of the pharmacological doses of glucocorticoids. Studies on the low-affinity glucocorticoid receptor," Receptor, 5, 63-69 (1995).

SMILES	growth inhibition by direct visual count of stained cells	inhibition of FBS-induced cell proliferation (comparison in words)	IC50 (Rattus norvegicus, 48 h, read-out: 50% inhibitory concentration) [µM]	cell proliferation stimulated by PDGF (50 ng/ml PDGF, 50,000 cells/well cultured for 72 hours, MTT (Figure 3B))
C[C@]12CC[C@H](O)C[C@@H]1CC[C@@H]1[C@@H]2CC[C@]2(C)C(=O)[C@H](Br)C[C@@H]12 [16α-BrEA, 16α-bromoepiandrosterone]	confirmed by cell counts	even more potent inhibitor of FBS-induced cell proliferation than DHEA	7.5	
C[C@]12CC[C@H](O)CC1=CC[C@@H]1[C@@H]2CC[C@]2(C)C(=O)CC[C@@H]12 [DHEA, dehydroepiandrosterone]	confirmed by cell counts	more active than DHEA-sulfate at high concentrations		inhibites cell proliferation
